# Data reported in ChEMBL document CHEMBL3864166, “4-Carbonyl-2,6-dibenzylidenecyclohexanone derivatives as small molecule inhibitors of STAT3 signaling pathway” (Bioorg Med Chem, 2016).
# pIC50, pKd: −log10 of the molar value. Activity calls are given as the source filed them. The rule behind the calls is not given here.
# Key:
# [1] = Antiproliferative activity against human MDA-MB-231 cells after 48 hrs by MTT assay; assay type: functional, cell-based; settings: MDA-MB-231, 48 h
# [2] = Antiproliferative activity against human A549 cells after 48 hrs by MTT assay; assay type: functional, cell-based; settings: A549, 48 h
# [3] = Antiproliferative activity against human DU145 cells after 48 hrs by MTT assay; assay type: functional, cell-based; settings: DU-145, 48 h
# [4] = test system: DU-145; test: Selectivity ratio of IC50 for human DU145 cells to IC50 for human MDA-MB-231 cells; assay type: functional
# [5] = Cytotoxicity against human HL-7702 cells assessed as reduction in cell viability after 48 hrs by MTT assay; assay type: toxicity, cell-based; settings: l02, 48 h
# [6] = test system: A549; test: Selectivity ratio of IC50 for human DU145 cells to IC50 for human A549 cells; assay type: functional
# [7] = target: T1, Signal transducer and activator of transcription 3 (Homo sapiens, UniProt P40763); test: Inhibition of STAT3 phosphorylation at tyr705 in human MDA-MB-231 cells after 24 hrs by Western blot analysisis; assay type: cell-based
# [8] = target: T1, Signal transducer and activator of transcription 3; test: Inhibition of STAT3 phosphorylation at tyr705 in human A549 cells after 24 hrs by Western blot analysisis; assay type: cell-based
# [9] = target: T1, Signal transducer and activator of transcription 3; test: Inhibition of STAT3 phosphorylation at tyr705 in human MDA-MB-231 cells at 4 uM after 24 hrs by Western blot analysisis; assay type: cell-based
# [10] = target: T1, Signal transducer and activator of transcription 3; test: Inhibition of STAT3 phosphorylation at tyr705 in human A549 cells at 4 uM after 24 hrs by Western blot analysisis; assay type: cell-based
# [11] = Effect on total STAT3 protein expression in human MDA-MB-231 cells at 1 to 4 uM after 24 hrs by Western blot analysis; assay type: ADME, cell-based; settings: mda-mb-231, 24 h
# [12] = Effect on total STAT3 protein expression in human A549 cells at 1 to 4 uM after 24 hrs by Western blot analysis; assay type: ADME, cell-based; settings: a549, 24 h
# [13] = target: T1, Signal transducer and activator of transcription 3; test: Inhibition of IL6-stimulated STAT3 phosphorylation at Tyr-705 residue in human MDA-MB-231 cells at 1 to 4 uM preincubated for 2 hrs followed by IL6 stimulation measured after 30 mins by Western blot analysisis; assay type: cell-based
# [14] = test system: MDA-MB-231; test: Induction of apoptosis in human MDA-MB-231 cells assessed increase in cleaved PARP levels at 1 to 4 uM after 24 hrs by Western blot analysisis; assay type: functional, cell-based
# [15] = test system: A549; test: Induction of apoptosis in human A549 cells assessed increase in cleaved PARP levels up to 4 uM after 24 hrs by Western blot analysisis; assay type: functional, cell-based
# [16] = target: T1, Signal transducer and activator of transcription 3; test: Binding affinity to STAT3 (unknown origin) expressed in Escherichia coli expression system by SPR assay
# [17] = Downregulation of IL6-stimulated STAT3 expression in human MDA-MB-231 cells at 1 to 4 uM preincubated for 2 hrs followed by IL6 stimulation measured after 30 mins by Western blot analysisis; assay type: functional, cell-based
# T1 sequence (P40763 whole entry): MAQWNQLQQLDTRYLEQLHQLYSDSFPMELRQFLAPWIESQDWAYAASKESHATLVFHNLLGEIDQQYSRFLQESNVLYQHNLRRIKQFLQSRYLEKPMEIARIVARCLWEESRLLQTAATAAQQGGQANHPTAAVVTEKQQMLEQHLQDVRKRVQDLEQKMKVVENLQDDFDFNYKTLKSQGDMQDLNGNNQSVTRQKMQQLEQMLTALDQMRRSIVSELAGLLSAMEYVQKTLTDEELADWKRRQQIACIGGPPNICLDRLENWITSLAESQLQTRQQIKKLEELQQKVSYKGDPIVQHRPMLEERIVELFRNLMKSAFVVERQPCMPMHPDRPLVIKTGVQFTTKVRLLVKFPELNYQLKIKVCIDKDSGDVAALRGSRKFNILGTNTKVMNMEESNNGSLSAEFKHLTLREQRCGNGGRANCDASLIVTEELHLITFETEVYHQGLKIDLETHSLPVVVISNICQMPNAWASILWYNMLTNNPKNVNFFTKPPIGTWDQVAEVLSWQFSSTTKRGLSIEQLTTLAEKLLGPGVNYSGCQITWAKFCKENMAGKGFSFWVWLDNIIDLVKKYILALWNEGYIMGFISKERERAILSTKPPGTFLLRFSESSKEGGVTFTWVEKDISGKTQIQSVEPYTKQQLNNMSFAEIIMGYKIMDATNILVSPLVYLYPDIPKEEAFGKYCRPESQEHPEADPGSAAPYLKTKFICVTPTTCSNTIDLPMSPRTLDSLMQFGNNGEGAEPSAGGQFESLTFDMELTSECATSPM
smiles,measurement,setting,value
COc1ccc(/C=C2\CC(C(=O)Nc3cccc(N4CCN(C)CC4)c3)C/C(=C\c3ccc(OC)c(O)c3)C2=O)cc1O (centres undefined),pIC50,[1],5.80
same,pIC50,[2],5.12
same,pIC50,[3],5.08
same,Ratio IC50,[4],5.2
COc1ccc(/C=C2\CC(C(=O)NCCO)C/C(=C\c3ccc(OC)cc3)C2=O)cc1 (centres undefined),pIC50,[1],4.93
same,pIC50,[2],4.86
same,pIC50,[3],< 4.70
COc1ccc(/C=C2\CC(C(=O)N3CCN(C(C)=O)CC3)C/C(=C\c3ccc(OC)cc3)C2=O)cc1 (centres undefined),pIC50,[1],5.23
same,pIC50,[2],5.10
same,pIC50,[3],4.76
same,Ratio IC50,[4],3
COc1ccc(/C=C2\CC(C(=O)Nc3cccc(N4CCN(C)CC4)c3)C/C(=C\c3ccc(OC)cc3)C2=O)cc1 (centres undefined),pIC50,[1],5.47
same,pIC50,[2],5.43
same,pIC50,[3],4.99
same,Ratio IC50,[4],3
CCN(CC)CCNC(=O)C1C/C(=C\c2ccc(OC)cc2)C(=O)/C(=C/c2ccc(OC)cc2)C1 (centres undefined),pIC50,[1],5.42
same,pIC50,[2],5.19
same,pIC50,[3],5.16
same,Ratio IC50,[4],1.8
COc1ccc(/C=C2\CC(C(=O)Nc3ccc(OC)cc3)C/C(=C\c3ccc(OC)cc3)C2=O)cc1 (centres undefined),pIC50,[1],< 4.70
same,pIC50,[2],< 4.70
same,pIC50,[3],< 4.70
CCN(CC)CCNC(=O)C1C/C(=C\c2ccc(OC)c(O)c2)C(=O)/C(=C/c2ccc(OC)c(O)c2)C1 (centres undefined),pIC50,[1],5.16
same,pIC50,[2],5.09
same,pIC50,[3],< 4.70
COc1ccc(/C=C2\CC(C(=O)NC(C)C)C/C(=C\c3ccc(OC)cc3)C2=O)cc1 (centres undefined),pIC50,[1],< 4.70
same,pIC50,[2],4.82
same,pIC50,[3],< 4.70
CN1CCN(c2ccc(NC(=O)C3C/C(=C\c4ccc(F)cc4)C(=O)/C(=C/c4ccc(F)cc4)C3)cc2)CC1 (centres undefined),pIC50,[1],6.23
same,pIC50,[2],5.50
same,pIC50,[3],5.58
same,Ratio IC50,[4],5.4
same,Activity,[5],Non-Toxic
COc1ccc(/C=C2\CC(C(=O)Nc3ccccc3)C/C(=C\c3ccc(OC)cc3)C2=O)cc1 (centres undefined),pIC50,[1],< 4.70
same,pIC50,[2],< 4.70
same,pIC50,[3],< 4.70
COc1ccc(/C=C2\CC(C(=O)Nc3ccc(N4CCN(C)CC4)cc3)C/C(=C\c3ccc(OC)cc3)C2=O)cc1 (centres undefined),pIC50,[1],5.48
same,pIC50,[2],5.51
same,pIC50,[3],5.15
same,Ratio IC50,[6],2.1
CCN(CC)CCNC(=O)C1C/C(=C\c2ccccc2)C(=O)/C(=C/c2ccccc2)C1 (centres undefined),pIC50,[1],6.20
same,pIC50,[2],5.41
same,pIC50,[3],5.36
same,Ratio IC50,[4],7
CCN(CC)CCNC(=O)C1C/C(=C\c2ccc(F)cc2)C(=O)/C(=C/c2ccc(F)cc2)C1 (centres undefined),pIC50,[1],6.19
same,pIC50,[2],5.73
same,pIC50,[3],5.79
same,Ratio IC50,[4],2.9
same,Activity,[5],Non-Toxic
same,inhibition,[7],Dose-dependent effect
same,inhibition,[8],Dose-dependent effect
same,inhibition,[9],100%
same,inhibition,[10],100%
same,Activity,[11],Non-Toxic
same,Activity,[12],Non-Toxic
same,inhibition,[13],Active
same,Activity,[14],Active
same,Activity,[15],Active
same,pKd,[16],5.10
same,Activity,[17],Active
CN1CCN(c2cccc(NC(=O)C3C/C(=C\c4ccc(F)cc4)C(=O)/C(=C/c4ccc(F)cc4)C3)c2)CC1 (centres undefined),pIC50,[1],6.11
same,pIC50,[2],5.42
same,pIC50,[3],5.22
same,Ratio IC50,[4],7.6
same,Activity,[5],Non-Toxic
COc1ccc(/C=C2\CC(C(=O)Nc3ccc(N4CCOCC4)cc3)C/C(=C\c3ccc(OC)cc3)C2=O)cc1 (centres undefined),pIC50,[1],5.38
same,pIC50,[2],5.56
same,pIC50,[3],4.81
same,Ratio IC50,[6],5.7
COc1cc(/C=C/C(=O)CC(=O)/C=C/c2ccc(O)c(OC)c2)ccc1O [CURCUMIN],pIC50,[1],4.61
same,pIC50,[2],4.82
same,pIC50,[3],4.35
same,Ratio IC50,[6],3
COc1ccc(/C=C2\CC(C(=O)N3CCOCC3)C/C(=C\c3ccc(OC)cc3)C2=O)cc1 (centres undefined),pIC50,[1],4.95
same,pIC50,[2],4.79
same,pIC50,[3],< 4.70
CN1CCN(c2cccc(NC(=O)C3C/C(=C\c4ccccc4)C(=O)/C(=C/c4ccccc4)C3)c2)CC1 (centres undefined),pIC50,[1],5.75
same,pIC50,[2],5.22
same,pIC50,[3],5.06
same,Ratio IC50,[4],4.9
COc1ccc(/C=C2\CC(C(=O)N3CCN(C)CC3)C/C(=C\c3ccc(OC)cc3)C2=O)cc1 (centres undefined),pIC50,[1],5.26
same,pIC50,[2],5.04
same,pIC50,[3],4.75
same,Ratio IC50,[4],3.2
